The record followed here is ChEMBL document CHEMBL1201862, “PubChem BioAssay data set” (2004).

Common to all, as to assay: DTP human tumour cell line panel, 48 h
Test [1] concerns RXF 393.
Test [2] relates to RPMI-8226.
Test [3] deals with SN12C.
Test [4] deals with TK-10.
Test [5] concerns NCI-H460.
For test [6], the system named is MDA-N.
Test [7] has as its system EKVX.
The subject of test [8] is NCI/ADR-RES.
The test system of test [9] is PC-3.
For test [10], the system named is UACC-257.
For test [11], the system named is ACHN.
Test [12] concerns MOLT-4.
In test [13] the test system is OVCAR-3.
In test [14] the test system is A498.
In test [15] the test system is KM12.
The subject of test [16] is OVCAR-8.
Test [17] deals with M14.
For test [18], the system named is SR.
For test [19], the system named is NCI-H23.
Test [20] concerns NCI-H522.

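48-hour exposure; five concentrations; linearly interpolated endpoints. The concentration for 50% growth inhibition is given as GI50.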 The source made the active and inactive calls. No stated cut-off is given here; in the data, active = GI50 up to about 1.1 µM and inactive = higher. Non-standard residues stand in square brackets, D forms with d. Residues, ends and D or L forms follow the SMILES beside them. β3hI = CC[CH](C)[CH](N)CC(=O)O A value given as a limit tells only on which side of the number the result lay.

Take `COc1ccc(OC)c2sc(N3C(=O)/C(=C/c4ccccc4S)N=C3c3ccccc3)nc12`: the GI50 (usually the concentration that inhibits growth by half) in test [1] was 18.8 µM (inactive); in [2] it was 22.6 µM (inactive); in test [3], 26.9 µM (inactive); in [4], > 100 µM (inactive); in test [5], 53.8 µM (inactive); in test [6], 21.8 µM (inactive). Moreover, the GI50 in [7] was 32.1 µM (inactive); in test [8], 77.8 µM (inactive); in test [9] it was 19.7 µM (inactive); in [10], 63 µM (inactive); in test [11], 34.8 µM (inactive); in test [12], 8.83 µM (inactive). The GI50 is 37.5 µM (inactive) in test [13]; 55.5 µM (inactive) in test [14]; 41 µM (inactive) in test [15]; 47.2 µM (inactive) in [16]; 36.5 µM (inactive) in [17]; 14.4 µM (inactive) in test [18].
Turning to `OCC1OC(NC(=S)NCCC(F)(F)C(F)(F)C(F)(F)C(F)(F)C(F)(F)C(F)(F)F)C(O)C(O)C1O` (configuration not stated), the GI50 in test [1] is 75.3 µM (inactive); in test [2] it was > 100 µM (inactive); in [3], > 100 µM (inactive); in test [4] it was > 100 µM (inactive); in test [19] it was > 100 µM (inactive); in test [5] it was > 100 µM (inactive). In addition, the GI50 in test [6] is > 100 µM (inactive); in test [8], > 100 µM (inactive); in test [9], 43 µM (inactive); in test [10], 54.7 µM (inactive); in test [11], 88.1 µM (inactive); in test [12], 21.6 µM (inactive). The GI50 in test [13] is > 100 µM (inactive); in test [14], 18.5 µM (inactive); in test [15], > 100 µM (inactive); in [17] it was 56.4 µM (inactive); in [18] it was > 100 µM (inactive).
As to `COc1cc(C2SCC(=O)N2c2ccccn2)cc(OC)c1OC` (configuration not stated), the GI50 is 57.7 µM (inactive) in [20]; 91 µM (inactive) in test [2]; > 100 µM (inactive) in [3]; > 100 µM (inactive) in test [4]; > 100 µM (inactive) in [19]; > 100 µM (inactive) in test [5]. The GI50 was 19 µM (inactive) in test [6]; > 100 µM (inactive) in test [7]; 39.6 µM (inactive) in test [8]; > 100 µM (inactive) in test [9]; 49.8 µM (inactive) in [10]; > 100 µM (inactive) in test [11]. In addition, the GI50 in test [12] is > 100 µM (inactive); in test [13], > 100 µM (inactive); in test [14], > 100 µM (inactive); in [15], 62.1 µM (inactive); in test [16], > 100 µM (inactive); in test [17] it was > 100 µM (inactive). Also, in test [18], the GI50 was 31.6 µM (inactive).
Turning to `Cc1cccc(Nc2cn(CCOc3ccccc3)c(=O)[nH]c2=O)c1`, the GI50 is 34.8 µM (inactive) in test [1]; 34 µM (inactive) in [2]; 24.6 µM (inactive) in test [3]; 31 µM (inactive) in test [19]; 32.7 µM (inactive) in test [5]; 32.4 µM (inactive) in [6]. Moreover, the GI50 in test [7] was 11.3 µM (inactive); in [8], 1.73 µM (inactive); in test [9] it was 23.4 µM (inactive); in [10] it was 43.7 µM (inactive); in [11], 33.2 µM (inactive); in test [12], 36.9 µM (inactive). Also, the GI50 in test [13] is 18.7 µM (inactive); in test [14], > 100 µM (inactive); in [15], 31.3 µM (inactive); in [17] it was 47.2 µM (inactive); in [18], > 100 µM (inactive).
Turning to `COc1cccc(N2C(=O)C3c4[nH]c5ccc(C)cc5c4C4CCC(C)CC4C3C2=O)c1` (configuration not stated), the GI50 in test [1] is 18.3 µM (inactive); in [2], > 100 µM (inactive); in [3] it was > 100 µM (inactive); in [4], 36.1 µM (inactive); in [19] it was > 100 µM (inactive); in test [5], > 100 µM (inactive). The GI50 is > 100 µM (inactive) in test [6]; 32.6 µM (inactive) in test [7]; > 100 µM (inactive) in [8]; > 100 µM (inactive) in [9]; > 100 µM (inactive) in [10]; > 100 µM (inactive) in test [11]. Besides, the GI50 in test [12] was > 10 µM (inactive); in [13], > 100 µM (inactive); in test [14], 49 µM (inactive); in test [16] it was > 100 µM (inactive); in [17] it was > 100 µM (inactive); in [18], > 10 µM (inactive).
Regarding `COc1ccc(CCN2CCN(CCCc3ccccc3)CC2)cc1`, the GI50 in test [20] was > 100 µM (inactive); in test [2], > 100 µM (inactive); in test [3], > 100 µM (inactive); in test [4], 64.4 µM (inactive); in test [19], 64.3 µM (inactive); in test [5] it was 84.5 µM (inactive). In addition, the GI50 is > 100 µM (inactive) in [6]; > 100 µM (inactive) in test [7]; 83 µM (inactive) in test [8]; > 100 µM (inactive) in [9]; 77.3 µM (inactive) in test [10]; > 100 µM (inactive) in test [11]. For the same compound, the GI50 in [12] is 92 µM (inactive); in test [13], 80 µM (inactive); in test [14] it was > 100 µM (inactive); in test [15] it was 72.6 µM (inactive); in [16], > 100 µM (inactive); in test [17], 86.9 µM (inactive). Besides, the GI50 in test [18] is 47.8 µM (inactive).
`CCOC(=O)N1CCN(c2c(N)nc(C)nc2O)CC1`: the GI50 in test [20], in test [2], in test [3], in test [4], in [19] and in [5] was > 100 µM (inactive) each time. Further, the GI50 in [6], in test [7], in [8], in test [9], in test [10] and in test [11] was > 100 µM (inactive) throughout. For the same compound, the GI50 in test [12], in test [13], in test [14], in test [15], in test [16] and in test [17] was > 100 µM (inactive) each time. Further, the GI50 in test [18] is > 100 µM (inactive).
As for `COc1ccccc1NC(=S)N/N=C/c1cccc(C)n1`, the GI50 is 0.279 µM (active) in test [20]; 2.11 µM (inactive) in test [2]; 7.1 µM (inactive) in test [3]; 8.99 µM (inactive) in [4]; 5.83 µM (inactive) in test [19]; 2.49 µM (inactive) in test [5]. In addition, the GI50 in [6] was 4.17 µM (inactive); in test [7] it was 4.67 µM (inactive); in test [8], 3.31 µM (inactive); in test [9] it was 4.5 µM (inactive); in test [10], 3.33 µM (inactive); in test [11], 2.71 µM (inactive). The GI50 in test [12] is 1.34 µM (inactive); in test [13], 1.26 µM (inactive); in test [14], 23.6 µM (inactive); in test [15], 6.25 µM (inactive); in [16], 4.07 µM (inactive); in [17], 2.18 µM (inactive). Also, in test [18], the GI50 is 2.43 µM (inactive).
Turning to `Cc1c2cccc-2ccc2c1[nH]c1ccc(Br)cc12`, the GI50 in [20] is 2.48 µM (inactive); in test [2], 3.15 µM (inactive); in [3], 12.9 µM (inactive); in [4], 17.1 µM (inactive); in test [19], 6.44 µM (inactive); in test [5], 4.56 µM (inactive). The GI50 in test [6] is 6.32 µM (inactive); in test [7] it was 1.78 µM (inactive); in [8] it was 9.59 µM (inactive); in test [9], 4.18 µM (inactive); in test [10] it was 24.2 µM (inactive); in test [11], 12.1 µM (inactive). In addition, the GI50 in test [13] was 3.84 µM (inactive); in test [14], 21.8 µM (inactive); in [15] it was 2.47 µM (inactive); in [16], 7.36 µM (inactive); in test [17], 6.12 µM (inactive); in [18] it was 3.04 µM (inactive).
In the case of `NCCCNc1ccc2c3c(nn2CCNCCO)-c2c(O)ccc(O)c2C(=O)c13`, the GI50 in test [20] was 1.18 µM (inactive); in test [2] it was 1.2 µM (inactive); in [4], 4.2 µM (inactive); in test [19], 1.25 µM (inactive); in [6], 2.75 µM (inactive); in [8], 29.7 µM (inactive). In addition, the GI50 in test [9] was 2.84 µM (inactive); in [10], 5.81 µM (inactive); in test [11], 0.989 µM (active); in test [12] it was 0.21 µM (active); in test [13], 5.13 µM (inactive); in test [14], 1.82 µM (inactive). Further, the figures for the GI50 in test [15], in test [17] and in test [18] were 3.78 µM (inactive), 3.2 µM (inactive) and 0.253 µM (active), respectively.
Regarding `CCC(C)C(CC(=O)N1CCCC1C(=O)NC(C(=O)NC(C(=O)NCC(=O)NC(CC(N)=O)C(=O)NC(C(=O)NC(C(=O)NC(CCCCN)C(N)=O)C(C)CC)C(C)CC)C(C)C)C(C)CC)NC(=O)C(N)C(C)CC` (stereo not drawn) (H-I[β3hI]PIVGNIIK-NH2; configuration not given here), the GI50 in [20], in [2], in test [3], in [4], in test [19] and in test [6] was > 50 µM (inactive) in each case. Moreover, the GI50 in [7], in test [8], in test [9], in test [10], in test [11] and in test [12] was > 50 µM (inactive) each time. Moreover, the GI50 in [13], in [14], in [15], in test [16], in [17] and in test [18] was > 50 µM (inactive) in each case.
